Measured values reported in the supplement of paper PMC10627819.

Tests used:
B. subtilis 168 [1] = test: fitness (endpoint OD595 vs no drug) (fraction); higher = more growth
In short: (§1)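 With the first reading as background, OD595 was measured every 30 min for 14 h in 384-well plates kept at 37 °C and inoculated at OD595 0.01. TSB, LB Lennox or CY was the medium. Fitness is the optical density at the transition into stationary phase divided by the robust mean of no-drug control wells, with a cap of 1.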

S. pneumoniae D39V [2] = test: as above
In short: as §1

B. subtilis 168 [3] = test: Bliss interaction score (quartile over a dose matrix) (fitness difference); higher = more antagonism (negative = synergy)
In short: (§2)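 Quartiles of the Bliss score were taken over technical, biological and donor/recipient replicates. That score is observed fitness minus the product of the single-drug fitness values, which were inferred from combination data. Fitness itself is OD595 at entry into stationary phase divided by the plate's robust no-drug mean, with a cap at 1.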

S. aureus DSM 20231 = test: as above
In short: as §2

S. aureus Newman = test: as above
In short: as §2

S. pneumoniae D39V [4] = test: as above
In short: as §2
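Wherever Bliss interaction score (quartile over a dose matrix) is given: first quartile when negative (synergy) and third quartile when positive (antagonism).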

CN(C)C(=O)C(CCN1CCC(O)(c2ccc(Cl)cc2)CC1)(c1ccccc1)c1ccccc1 [Loperamide] + CN(N=O)C(=O)N[C@@H](C=O)[C@@H](O)[C@H](O)[C@H](O)CO [Streptozotocin]
fitness, one replicate
Details | first compound 20 µg/mL | first compound 25 µg/mL | first compound 40 µg/mL | first compound 50 µg/mL | first compound 68.57 µg/mL | first compound 80 µg/mL | first compound 100 µg/mL
B. subtilis 168 [1], partner 0.15 µg/mL | – | 0.843 | – | 0.0229 | – | – | 0.0221
B. subtilis 168 [1], partner 0.3 µg/mL | – | 0.802 | – | 0.0269 | – | – | 0.0127
B. subtilis 168 [1], partner 0.6 µg/mL | – | 0.821 | – | 0.025 | – | – | 0.02
S. pneumoniae D39V [2], partner 1.2 µg/mL | ≥ 1 | – | ≥ 1 | – | 0.971 | 0.0146 | –
S. pneumoniae D39V [2], partner 2.4 µg/mL | ≥ 1 | – | ≥ 1 | – | 0.929 | 0.0167 | –
S. pneumoniae D39V [2], partner 4.8 µg/mL | ≥ 1 | – | ≥ 1 | – | ≥ 1 | 0 | –

fitness, S. pneumoniae D39V [2]
Details | partner 1.2 µg/mL | partner 2.4 µg/mL | partner 4.8 µg/mL
first compound 17.14 µg/mL | 0.962 | 0.943 | 0.974
first compound 34.28 µg/mL | 0.956 | 0.982 | 0.978

Details | Bliss interaction score
B. subtilis 168 [3] | -0.0219
S. aureus DSM 20231 | 0.103
S. aureus Newman | 0.0514
S. pneumoniae D39V [4] | 0.0707

CN(C)C(=O)C(CCN1CCC(O)(c2ccc(Cl)cc2)CC1)(c1ccccc1)c1ccccc1 [Loperamide] + CCC(C)C1C(=O)NC(=C)C(=O)NC(C(=O)NC(CSCC(C(=O)N1)NC(=O)/C(=C/C)/NC(=O)C(C(C)CC)N)C(=O)NC2C(SCC(NC(=O)CNC(=O)C3CCCN3C2=O)C(=O)NC(CCCCN)C(=O)NC4C(SCC(NC(=O)CNC(=O)C(NC(=O)C(NC(=O)C(NC(=O)CNC4=O)C)CC(C)C)CCSC)C(=O)NC(CC(=O)N)C(=O)NC(CCSC)C(=O)NC(CCCCN)C(=O)NC5C(SCC6C(=O)NC(C(=O)NC(CSC(C(C(=O)N6)NC(=O)C(NC5=O)C)C)C(=O)NC(CO)C(=O)NC(C(C)CC)C(=O)NC(CC7=CN=CN7)C(=O)NC(C(C)C)C(=O)NC(=C)C(=O)NC(CCCCN)C(=O)O)CC8=CN=CN8)C)C)C)CC(C)C [Nisin]
fitness, one replicate, main component drawn
Details | first compound 25 µg/mL | first compound 50 µg/mL | first compound 68.57 µg/mL | first compound 100 µg/mL
B. subtilis 168 [1], partner 0.5 µg/mL | 0.435 | 0.0779 | – | 0.108
B. subtilis 168 [1], partner 1 µg/mL | 0.11 | 0.0703 | – | 0.0347
B. subtilis 168 [1], partner 1.25 µg/mL | 0.204 | 0.0476 | – | 0.0457
B. subtilis 168 [1], partner 1.6 µg/mL | 0.1 | 0.0166 | – | 0.0155
B. subtilis 168 [1], partner 2 µg/mL | 0.088 | 0.0708 | – | 0.0438
B. subtilis 168 [1], partner 2.5 µg/mL | 0.0567 | 0.0575 | – | 0.0577
B. subtilis 168 [1], partner 3.2 µg/mL | 0.0289 | 0.0291 | – | 0.0362
B. subtilis 168 [1], partner 4 µg/mL | 0.0315 | 0.0232 | – | 0.0127
B. subtilis 168 [1], partner 5 µg/mL | 0.0493 | 0.0332 | – | 0.0475
B. subtilis 168 [1], partner 6.4 µg/mL | 0.035 | 0.0454 | – | 0.077
B. subtilis 168 [1], partner 8 µg/mL | 0.0084 | 0.0257 | – | 0.0094
B. subtilis 168 [1], partner 16 µg/mL | 0.0263 | 0.037 | – | 0.0142
S. pneumoniae D39V [2], partner 1.6 µg/mL | – | – | 0.001 | –
S. pneumoniae D39V [2], partner 3.2 µg/mL | – | – | 0 | –
S. pneumoniae D39V [2], partner 6.4 µg/mL | – | – | 0 | –

S. pneumoniae D39V [2], main component drawn
Details | fitness
first compound 17.14 µg/mL, partner 1.6 µg/mL | 0.0272
first compound 17.14 µg/mL, partner 3.2 µg/mL | 0.0109
first compound 17.14 µg/mL, partner 6.4 µg/mL | 0.0062
first compound 20 µg/mL, partner 0.4275 µg/mL | 0.827
first compound 20 µg/mL, partner 1.71 µg/mL | 0.063
first compound 34.28 µg/mL, partner 1.6 µg/mL | 0.0162
first compound 34.28 µg/mL, partner 3.2 µg/mL | 0
first compound 34.28 µg/mL, partner 6.4 µg/mL | 0.0091
first compound 40 µg/mL, partner 0.4275 µg/mL | 0.145
first compound 40 µg/mL, partner 0.855 µg/mL | 0.0969
first compound 40 µg/mL, partner 1.71 µg/mL | 0.0997
first compound 80 µg/mL, partner 0.4275 µg/mL | 0.0928
first compound 80 µg/mL, partner 0.855 µg/mL | 0.073
first compound 80 µg/mL, partner 1.71 µg/mL | 0.102

main component drawn
Details | Bliss interaction score
B. subtilis 168 [3] | -0.126
S. aureus DSM 20231 | -0.423
S. aureus Newman | -0.076
S. pneumoniae D39V [4] | -0.175

CCCCCCCCCC(=O)N[C@@H](Cc1c[nH]c2ccccc12)C(=O)N[C@H](CC(N)=O)C(=O)N[C@@H](CC(=O)O)C(=O)N[C@@H]1C(=O)NCC(=O)N[C@@H](CCCN)C(=O)N[C@@H](CC(=O)O)C(=O)N[C@H](C)C(=O)N[C@@H](CC(=O)O)C(=O)NCC(=O)N[C@H](CO)C(=O)N[C@@H]([C@H](C)CC(=O)O)C(=O)N[C@@H](CC(=O)c2ccccc2N)C(=O)O[C@@H]1C [Daptomycin] + C[C@H]1c2cccc(O)c2C(=O)C2=C(O)[C@]3(O)C(=O)C(C(N)=O)=C(O)[C@@H](N(C)C)[C@@H]3[C@@H](O)[C@@H]21 [Doxycycline]
Details | fitness
B. subtilis 168 [1], first compound 0.125 µg/mL, partner 0.02 µg/mL | 0.857
B. subtilis 168 [1], first compound 0.125 µg/mL, partner 0.04 µg/mL | 0.794
B. subtilis 168 [1], first compound 0.125 µg/mL, partner 0.08 µg/mL | 0.605
B. subtilis 168 [1], first compound 0.25 µg/mL, partner 0.02 µg/mL | 0.871
B. subtilis 168 [1], first compound 0.25 µg/mL, partner 0.04 µg/mL | 0.757
B. subtilis 168 [1], first compound 0.25 µg/mL, partner 0.08 µg/mL | 0.595
B. subtilis 168 [1], first compound 0.5 µg/mL, partner 0.02 µg/mL | 0.83
B. subtilis 168 [1], first compound 0.5 µg/mL, partner 0.04 µg/mL | 0.771
S. pneumoniae D39V [2], first compound 1 µg/mL, partner 0.0155 µg/mL | 0.733
S. pneumoniae D39V [2], first compound 2 µg/mL, partner 0.0155 µg/mL | 0.738
S. pneumoniae D39V [2], first compound 4 µg/mL, partner 0.0155 µg/mL | 0.795

fitness, one replicate
Details | first compound 1 µg/mL | first compound 2 µg/mL | first compound 4 µg/mL
B. subtilis 168 [1], partner 0.02 µg/mL | 0.624 | – | –
B. subtilis 168 [1], partner 0.04 µg/mL | 0.641 | – | –
B. subtilis 168 [1], partner 0.08 µg/mL | 0.188 | – | –
S. pneumoniae D39V [2], partner 0.003875 µg/mL | 0.928 | 0.934 | 0.981
S. pneumoniae D39V [2], partner 0.00775 µg/mL | 0.866 | 0.878 | 0.927

Details | Bliss interaction score
B. subtilis 168 [3] | 0.0559
S. aureus DSM 20231 | 0.0825
S. aureus Newman | 0.0504
S. pneumoniae D39V [4] | -0.249

C[C@H]1COc2c(N3CCN(C)CC3)c(F)cc3c(=O)c(C(=O)O)cn1c23 [Levofloxacin] + Cc1onc(-c2ccccc2)c1C(=O)N[C@@H]1C(=O)N2[C@@H]1SC(C)(C)[C@@H]2C(=O)O [Oxacillin]
fitness, B. subtilis 168 [1], one replicate
Details | partner 0.0078 µg/mL | partner 0.0155 µg/mL | partner 0.031 µg/mL | partner 0.075 µg/mL | partner 0.15 µg/mL | partner 0.3 µg/mL
first compound 0.001 µg/mL | 0.942 | 0.965 | 0.932 | – | – | –
first compound 0.002 µg/mL | 0.898 | 0.936 | 0.876 | 0.476 | 0.0412 | 0.0517
first compound 0.0039 µg/mL | 0.832 | 0.849 | 0.741 | 0.416 | 0.038 | 0.0324
first compound 0.0078 µg/mL | – | – | – | 0.592 | 0.0582 | 0.0577

Details | fitness
B. subtilis 168 [1], first compound 0.0312 µg/mL, partner 0.002 µg/mL | 0.0448
B. subtilis 168 [1], first compound 0.0312 µg/mL, partner 0.004 µg/mL | 0.0387
B. subtilis 168 [1], first compound 0.0312 µg/mL, partner 0.008 µg/mL | 0.0483
B. subtilis 168 [1], first compound 0.0625 µg/mL, partner 0.002 µg/mL | 0.0429
B. subtilis 168 [1], first compound 0.0625 µg/mL, partner 0.004 µg/mL | 0.0548
B. subtilis 168 [1], first compound 0.0625 µg/mL, partner 0.008 µg/mL | 0.0559
B. subtilis 168 [1], first compound 0.125 µg/mL, partner 0.002 µg/mL | 0.0397
B. subtilis 168 [1], first compound 0.125 µg/mL, partner 0.004 µg/mL | 0.0414
B. subtilis 168 [1], first compound 0.125 µg/mL, partner 0.008 µg/mL | 0.0574
S. pneumoniae D39V [2], first compound 0.1725 µg/mL, partner 0.01 µg/mL | 0.972
S. pneumoniae D39V [2], first compound 0.1725 µg/mL, partner 0.02 µg/mL | 0.917
S. pneumoniae D39V [2], first compound 0.2 µg/mL, partner 0.01 µg/mL | 0.928
S. pneumoniae D39V [2], first compound 0.2 µg/mL, partner 0.02 µg/mL | 0.898
S. pneumoniae D39V [2], first compound 0.2 µg/mL, partner 0.04 µg/mL | 0.495
S. pneumoniae D39V [2], first compound 0.345 µg/mL, partner 0.01 µg/mL | 0.9
S. pneumoniae D39V [2], first compound 0.345 µg/mL, partner 0.02 µg/mL | 0.894
S. pneumoniae D39V [2], first compound 0.4 µg/mL, partner 0.01 µg/mL | 0.809
S. pneumoniae D39V [2], first compound 0.4 µg/mL, partner 0.02 µg/mL | 0.785
S. pneumoniae D39V [2], first compound 0.4 µg/mL, partner 0.04 µg/mL | 0.402
S. pneumoniae D39V [2], first compound 0.69 µg/mL, partner 0.01 µg/mL | 0.704
S. pneumoniae D39V [2], first compound 0.69 µg/mL, partner 0.02 µg/mL | 0.571
S. pneumoniae D39V [2], first compound 0.8 µg/mL, partner 0.04 µg/mL | 0.24

Details | Bliss interaction score
B. subtilis 168 [3] | -0.0169
S. aureus DSM 20231 | 0.0488
S. aureus Newman | 0.0619
S. pneumoniae D39V [4] | 0.11
